One may read the Ki as a measure of affinity in units of concentration, obtained from inhibition or displacement.

Results on 26 compounds are retold here after patent publication US9079866B2, “Flap modulators” (JANSSEN PHARMACEUTICA NV, priority 2013, dated 2015).

Where a name gives a salt, the structure may show the parent alone. Bounds are passed on as bounds.

The first assay deals with human FLAP (Homo sapiens (Human), UniProt P20292). Put plainly: FLAP binding assay (HTRF format). The note with it: human FLAP wild type, HTRF format; average of two plates, duplicates. The procedure: The ability of the compounds of the present invention to treat a FLAP-mediated disease and/or disorder, or associated symptoms or complications thereof, was determined using the following procedures. Binding assay data represent the average value obtained from two different assay plates, with samples run in duplicate on each plate. Human whole blood assay data represent a single replicate on an assay plate using whole blood from at least one healthy donor.
Sequence of human FLAP (P20292 whole entry): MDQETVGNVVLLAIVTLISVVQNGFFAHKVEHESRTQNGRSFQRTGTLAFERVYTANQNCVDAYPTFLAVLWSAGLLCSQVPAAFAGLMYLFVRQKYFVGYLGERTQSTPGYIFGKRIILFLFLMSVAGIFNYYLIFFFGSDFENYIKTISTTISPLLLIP
Data are expressed as a HTRF ratio.
In general terms: Time-resolved FRET reads energy transfer from a long-lived donor to a nearby acceptor.
Take `CS(=O)(=O)c1ccccc1-c1ccc(-c2ncc(N)nc2C#N)c(F)c1` [Example 3, 6-Amino-3-[3-fluoro-2′-(methylsulfonyl)biphenyl-4-yl]pyrazine-2-carbonitrile]: the Ki is above 10000 nM. `CN1C(C)(C)CC(NS(=O)(=O)c2ccccc2-c2ccc(-c3cnc(N)cn3)c(F)c2)CC1(C)C` [Example 30, 4′-(5-Aminopyrazin-2-yl)-3′-fluoro-N-(1,2,2,6,6-pentamethylpiperidin-4-yl)biphenyl-2-sulfonamide]: the inhibition constant Ki came to 95 nM. Still for that read-out and setting: to `Nc1cnc(-c2ccc(-c3ccccc3NS(N)(=O)=O)cc2F)cn1` [Example 33, N-[4′-(5-Aminopyrazin-2-yl)-3′-fluorobiphenyl-2-yl]sulfamide] belongs 304 nM. For `CCS(=O)(=O)c1ccccc1-c1ccc(-c2cnc(N)cn2)c(F)c1` [Example 191, 5-[2′-(Ethylsulfonyl)-3-fluorobiphenyl-4-yl]pyrazin-2-amine], the Ki was found to be 658 nM. On to `CC(C)(C)S(=O)(=O)c1ccccc1-c1ccc(-c2cnc(N)cn2)c(F)c1` [Example 194, 5-[2′-(tert-Butylsulfonyl)-3-fluorobiphenyl-4-yl]pyrazin-2-amine], for which the inhibition constant (Ki) was found to be 733 nM.

Take `C[C@H](CO)NS(=O)(=O)Cc1ccccc1-c1ccc(-c2cnc(N)cn2)c(F)c1` [Example 225, (R)-1-(4′-(5-Aminopyrazin-2-yl)-3′-fluoro-[1,1′-biphenyl]-2-yl)-N-(1-hydroxypropan-2-yl)-methanesulfonamide hydrochloride]: the affinity corresponds to a Ki of 856 nM.

Compound `NC(=O)NC1CCN(S(=O)(=O)Cc2ccccc2-c2ccc(-c3cnc(N)cn3)c(F)c2)CC1` [Example 232, 1-[1-({[4′-(5-Aminopyrazin-2-yl)-3′-fluorobiphenyl-2-yl]methyl}sulfonyl)piperidin-4-yl]urea hydrochloride] registered an inhibition constant (Ki) of 358 nM. Same read-out and setting: to `Nc1cnc(-c2ccc(-c3ccccc3CSc3cccnn3)cc2F)cn1` [Example 239, 5-(3-Fluoro-2′-((pyridazin-3-ylthio)methyl)-[1,1′-biphenyl]-4-yl)pyrazin-2-amine hydrochloride] belongs 6 nM; to `Nc1ncc(-c2ccc(-c3ccccc3S(=O)(=O)N3CCNCC3)cc2F)cn1` [Example 290, 5-[3-Fluoro-2′-(piperazin-1-ylsulfonyl)biphenyl-4-yl]pyrimidin-2-amine trifluoroacetic acid salt], 940 nM; to `CC(C)(C)S(=O)(=O)c1ccccc1-c1ccc(-c2cnc(N)nc2)c(F)c1` [Example 293, 5-[2′-(tert-Butylsulfonyl)-3-fluorobiphenyl-4-yl]pyrimidin-2-amine trifluoroacetic acid salt], above 10000 nM. With `CN(C)S(=O)(=O)c1ccccc1-c1ccc(-c2cnc(N)nc2)c(F)c1` [Example 299, 4′-(2-Aminopyrimidin-5-yl)-3′-fluoro-N,N-dimethylbiphenyl-2-sulfonamide trifluoroacetic acid salt], the affinity, expressed as Ki, was 121 nM.

Turning to `Nc1ncc(-c2ccc(-c3ccccc3S(N)(=O)=O)cc2F)cn1` [Example 302, 4′-(2-Aminopyrimidin-5-yl)-3′-fluorobiphenyl-2-sulfonamide trifluoroacetic acid salt], the Ki is 2500 nM.

As to `Nc1ncc(-c2ccc(-c3ccccc3S(=O)(=O)N3CCOCC3)cc2F)cn1` [Example 303, 5-[3-Fluoro-2′-(morpholin-4-ylsulfonyl)biphenyl-4-yl]pyrimidin-2-amine trifluoroacetic acid salt], affinity was put at a Ki of 612 nM.

Regarding `Nc1ncc(-c2ccc(-c3ccccc3S(=O)(=O)N3CCNC(=O)C3)cc2F)cn1` [Example 306, 4-{[4′-(2-Aminopyrimidin-5-yl)-3′-fluorobiphenyl-2-yl]sulfonyl}piperazin-2-one trifluoroacetic acid salt], affinity was put at a Ki of 397 nM. On the same count and under the same terms, to `C[C@H](NS(=O)(=O)c1ccccc1-c1ccc(-c2cnc(N)nc2)c(F)c1)C(=O)O` [Example 308, N-{[4′-(2-Aminopyrimidin-5-yl)-3′-fluorobiphenyl-2-yl]sulfonyl}-L-alanine] belongs above 10000 nM; to `Nc1ncc(-c2ccc(-c3ccccc3NS(=O)(=O)N3CCOCC3)cc2F)cn1` [Example 310, N-[4′-(2-Aminopyrimidin-5-yl)-3′-fluorobiphenyl-2-yl]morpholine-4-sulfonamide], 492 nM.

Still in this assay, the particulars now being: read-out: FLAP Binding wild type HTRF Ki.
With `Nc1cnc(-c2ccc(-c3ccccc3CS(=O)(=O)N3CCNC(=O)C3)cc2F)cn1` [Example 223, 4-({[4′-(5-Aminopyrazin-2-yl)-3′-fluorobiphenyl-2-yl]methyl}sulfonyl)piperazin-2-one formic acid salt], the inhibition constant Ki amounted to 663 nM. For `CS(=O)(=O)c1ccccc1-c1ccc(-c2cnc(N)nc2)c(F)c1` [Example 304, 5-[3-Fluoro-2′-(methylsulfonyl)biphenyl-4-yl]pyrimidin-2-amine trifluoroacetic acid salt], the inhibitory constant (Ki) was above 10000 nM.

Still in this assay, the particulars now being: wild type FLAP, HTRF format.
Take `CC(O)C1CN(C(=O)c2ccccc2-c2ccc(-c3cnc(N)cn3)c(F)c2)CCO1` (mixture of isomers) [Example 758, 1-(4-{[4′-(5-Aminopyrazin-2-yl)-3′-fluorobiphenyl-2-yl]carbonyl}morpholin-2-yl)ethanol (Diastereomeric Mixture)]: the Ki was 557 nM.

`CC(O)C1CN(C(=O)c2ccccc2-c2ccc(-c3cnc(N)nc3)c(F)c2)CCO1` (mixture of isomers) [Example 759, 1-(4-{[4′-(2-Aminopyrimidin-5-yl)-3′-fluorobiphenyl-2-yl]carbonyl}morpholin-2-yl)ethanol (diastereomeric mixture)]: the Ki was above 10000 nM.

For the compound `Nc1ncc(-c2ccc(-c3ccccc3C(=O)NC3CCC(O)CC3)cc2F)cn1` (mixture of isomers) [Example 765, (cis/trans) 4′-(2-Aminopyrimidin-5-yl)-3′-fluoro-N-(4-hydroxycyclohexyl)biphenyl-2-carboxamide], the Ki is above 10000 nM.

`CC1CN(C(=O)c2ccccc2-c2ccc(-c3cnc(N)nc3)c(F)c2)CC(C)O1` (mixture of isomers) [Example 780, 5-{2′-[(2,6-Dimethylmorpholin-4-yl)carbonyl]-3-fluorobiphenyl-4-yl}pyrimidin-2-amine (Diastereoisomeric Mixture)]: the Ki is above 10000 nM.

As to `C[S+]([O-])c1ccccc1-c1ccc(-c2cnc(N)cn2)c(F)c1` (racemic) [Example 700, racemic 5-[3-Fluoro-2′-(methylsulfinyl)biphenyl-4-yl]pyrazin-2-amine], the Ki is above 10000 nM. With `Nc1ncc(-c2ccc(-c3ccccc3C(=O)N3CCOC(C(F)(F)F)C3)cc2F)cn1` (racemic) [Example 766, racemic 5-(3-Fluoro-2′-{[2-(trifluoromethyl)morpholin-4-yl]carbonyl}biphenyl-4-yl)pyrimidin-2-amine], the inhibition constant Ki is 1910 nM. On the same count and under the same terms, to `Nc1ncc(-c2ccc(-c3ccccc3C(=O)N3CCOC(CO)C3)cc2F)cn1` (racemic) [Example 799, racemic [2-[4-(2-Aminopyrimidin-5-yl)-3-fluoro-phenyl]phenyl]-[2-(hydroxymethyl)morpholin-4-yl]methanone] belongs above 10000 nM. `CC(CO)Oc1ncccc1-c1ccc(-c2cnc(N)nc2)c(F)c1` (stereo in doubt) [Example 656, (2R)-2-({3-[4-(2-Aminopyrimidin-5-yl)-3-fluorophenyl]pyridin-2-yl}oxy)propan-1-ol] yielded a Ki of 1400 nM.
